The record followed here is US20250115597A1, “TYK2 INHIBITORS AND COMPOSITIONS AND METHODS THEREOF” (LYNK PHARMACEUTICALS CO. LTD., priority 2021, published 2025).

For orientation: IC50 means the concentration at which inhibition is half-maximal.

Like-named read-outs stand apart in the source and are kept apart here.

A short description of series [1]: Plasma protein binding by equilibrium dialysis. It is filed as in vitro ADME. To be noted: human plasma, equilibrium dialysis 5 hours at 37° C.; read-out: % Bound (human) (converted). The procedure: Plasma Protein Binding by Equilibrium Dialysis
Aliquots of test compound stock solution and warfarin stock solution were spiked into plasma to give the matrix solutions with theoretical concentrations of test compound at 0.2 and 2 μM or warfarin at 2 μM. Immediately transfer 50 μL of the spiked plasma solution suspension to a 96-well plate to act as T=0 control sample. Assemble the dialysis set up following the manufacturer's instructions. Load cells with 150 μL of plasma sample and dialyzed against equal volume of dialysis buffer (PBS). The assay is performed in duplicate. Cover the unit with gas permeable lid and incubate for 5 hours at 37° C. at 100 rpm in a constant temperature shaking box. At the end of incubation, remove lid and pipette 50 μL of post-dialysis samples from both buffer and plasma solution chambers into separated 96-well plate for analysis, respectively. Add 50 μL of plasma solution to the buffer samples, and an equal volume of PBS to the collected plasma solution samples. Shake the plate at 1000 rpm for 2 minutes and add 600 μL of 50% ACN/MeOH containing an appropriate internal standard (IS) to precipitate protein and release compound. Vortex at 1000 rpm for 10 minutes. Centrifuge for 10 minutes at 4000 rpm. Then transfer 75 μL of the supernatant to new 96-well plates for analysis. Add 150 μL of distilled water to each sample and mix for analysis by LC-MS/MS.
The free rate (% Unbound), binding rate (% Bound), and recovery rate (% Recovery) of the compound are calculated as follows: […]
In general terms: Equilibrium dialysis compares concentrations on both sides of a semipermeable membrane.

Series [2] addresses T1, Ba/F3-FL-TYK2-P760L cells (Homo sapiens, UniProt P29597, P760L, cells depend on it).
T1 construct: BaF3-FL-T2P760L (nM)
Description: Anti-proliferative assay, Ba/F3-FL-TYK2-P760L cells (Cell-Titer Glo). The format is cell-based. As to conditions: 72 h, read-out: BaF3-FL-T2P760L IC50. The essentials:
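Ba/F3 cells made IL-3-independent by TEL-fused or full-length mutant JAK-family kinases, seeded at 2000/well and dosed after 24 h with 9 three-fold dilutions topping at 20 μM. Viability after 72 h at 37 °C, 5% CO2 by Cell-Titer Glo ATP luminescence.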

The nature of series [3]: Microsomal metabolic stability assay. The format is in vitro ADME. As to conditions: pH 7.4, 0.5 mg/mL protein, 1 μM compound. In a few lines:
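Test article at 1 μM with 0.5 mg/mL microsomal protein and 2 mM NADPH, in 100 mM potassium phosphate pH 7.4 with 1.0 mM EDTA at 37 °C. Sampled at 0–45 min and quantified by LC/MS/MS. T1/2 from the slope of ln % remaining vs time.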

A short description of series [4]: Hepatocytes metabolic stability assay. It is filed as in vitro ADME. As to conditions: cryopreserved hepatocytes, human hepatocytes, 1.0×10^6 cells/mL; for half-life at 1 μM: read-out: Human hepatocyte stability T1/2. The method, then: Hepatocytes Metabolic Stability Assay
The vials of cryopreserved hepatocytes were removed from the liquid nitrogen container and immediately immersed in a 37° C. water bath for approximately 2 min. The melted ice pellets were transferred into tubes containing 50 mL of pre-warmed thawing medium and mixed well by gently inverting the tubes, and then centrifuged at 500 rpm for 3 minutes at room temperature. The supernatants were discarded, and cell pellets were re-suspended by adding appropriate volumes of pre-warmed incubation medium. The cells viability of each species was determined using Trypan Blue exclusion. Add 50 μL of pre-warmed 2× dosing solution to the wells designated for different time points. Then 50 μL of cells suspension (2×10^6 cells/mL) were added into appropriate wells at corresponding time points of T15, T30, T60, T120. Start timing and put the plate in an incubator at 37° C. For TO sample, add 300 μL of ACN containing internal standard to the wells, mix gently, then add 50 μL of pre-warmed hepatocytes solution (2×10^6 cells/mL). The concentration of test compound was 1 μM and 1.0×10^6 cells/mL in the final incubation. At each corresponding time point, test and control compounds reaction samples were stopped by adding 300 μL acetonitrile containing internal standard. All sample plates were thoroughly mixed and centrifuged at 5000×g for 15 minutes. The supernatants were diluted at ratio of 1:1 with ultra-pure water for test and positive controls. Then submitted for LC-MS/MS analysis.
The analyte/internal standard peak area ratios were converted to percentage remaining with the following equation: […]
The in vitro elimination constant, k of test compounds and control compounds were calculated from a log linear plot of % Remaining versus time, then the half-life (T1/2), the estimation of the in vitro hepatic intrinsic clearance (CLint) values were calculated from substrate disappearance rate in hepatocytes incubation: […]

A further series deals with pSTAT1. Description: Phosphorylation inhibition of STAT in human whole blood, IFN-alpha stimulated (flow cytometry). The format is cell-based. As to conditions: 20 min; human whole blood, IFN-alpha 20 mins, CD3 cells; read-out: IC50 on pSTAT1 inhibition in h WB. The method, then:
Phosphorylation Inhibition of STAT in Human PBMC and Human Whole Blood Testing:
The inhibitory potential of test articles in human PBMC and human whole blood assay was evaluated by the method of flow cytometry.
IFN-alpha will activate JAK1 and TYK2 kinase in T cells by binding to IFN receptors, and then lead to phosphorylation of STAT1 and STAT2. The phosphorylated STAT1 enter nuclear and promote transcription and expression of IFN-gamma. To evaluate the efficacy of TYK2i in T cells, freshly prepared human PBMC or freshly collected human whole blood will be stimulated with certain unit of human IFN-alpha (Universal Type I IFN(1MU), R&D, 11200-2) for 20 mins in incubator. After stimulation, fix cells with Phosflow™ Fix Buffer I (BD, 557870), and then collect fixed cells by centrifugation (500 g, 8 min). Wash cells once with pre-cooled PBS, and then permeabilize cells with cold Perm Buffer III buffer (BD, 558050) for 45 mins on ice. Collect cells by centrifugation (600 g, 8 min) and washed twice with cold PBS. Stain cells with anti-human CD3 (FITC Mouse Anti-Human CD3, BD, 555332) and anti-pSTAT1_Y701(Alexa Fluor 647 Mouse Anti-Stat1 (pY701), BD, 612597) antibodies. Detect pSTAT1 by flow cytometry (CytoFlex S) and analyze data with FlowJo and GraphPad Prism 8 software. IC50 values of test articles were determined using 4-parameter logistic equation.

Another series deals with T2, TYK2-JH2 domain (Homo sapiens, UniProt P29597).
T2 construct: IC50 on JH2 domain activity (nM)
Description: Binding activity test for JH2 domain of TYK2 (Tb-antibody/tracer FRET). To be noted: for JAK1/TYK2 selectivity: ratio JAK1-JH2 IC50 / TYK2-JH2 IC50. In a few lines: (§1)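 Compounds tested as 11-point 3-fold serial dilutions against the JH2 domain in a Tb-antibody/tracer FRET binding format. Plates incubated 60 min at 25° C, then overnight at 4° C, before FRET reading.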

For a further series, the target named is T3, JAK1-JH2 domain (Homo sapiens, UniProt P23458).
T3 construct: IC50 on JH2 domain activity (nM)
Description: Binding activity test for JH2 domain of JAK1 (Tb-antibody/tracer FRET). In a few lines: as §1

[5] abbreviates: human liver microsomes, read-out: Human LM Clint.
Where [6] appears, read: human liver microsomes, read-out: Human LM T½.
The mark [7] stands for this setting: dog liver microsomes, read-out: Dog LM Clint.
Setting [8] is: dog liver microsomes, read-out: Dog LM T½.
Where [9] appears, read: rat liver microsomes, read-out: Rat LM Clint.
The mark [10] stands for this setting: rat liver microsomes, read-out: Rat LM T½.

T3 sequence (P23458 583-855 limits assumed): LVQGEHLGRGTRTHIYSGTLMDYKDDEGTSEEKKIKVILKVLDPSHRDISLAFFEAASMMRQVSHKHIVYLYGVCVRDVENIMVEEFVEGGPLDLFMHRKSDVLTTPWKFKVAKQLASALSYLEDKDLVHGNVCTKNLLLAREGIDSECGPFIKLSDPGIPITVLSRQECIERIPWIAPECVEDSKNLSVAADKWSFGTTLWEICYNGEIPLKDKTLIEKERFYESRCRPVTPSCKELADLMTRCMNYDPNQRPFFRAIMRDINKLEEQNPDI
T2 sequence (P29597 589-875 limits assumed): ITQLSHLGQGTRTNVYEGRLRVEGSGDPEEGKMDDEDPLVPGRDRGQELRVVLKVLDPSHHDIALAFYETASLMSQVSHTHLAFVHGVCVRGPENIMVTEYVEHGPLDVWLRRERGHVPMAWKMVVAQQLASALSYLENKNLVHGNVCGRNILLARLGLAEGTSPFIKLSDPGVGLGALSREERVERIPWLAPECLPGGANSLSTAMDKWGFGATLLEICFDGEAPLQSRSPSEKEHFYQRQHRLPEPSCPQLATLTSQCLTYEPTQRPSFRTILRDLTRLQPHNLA
T1 sequence (P29597 whole entry P760L): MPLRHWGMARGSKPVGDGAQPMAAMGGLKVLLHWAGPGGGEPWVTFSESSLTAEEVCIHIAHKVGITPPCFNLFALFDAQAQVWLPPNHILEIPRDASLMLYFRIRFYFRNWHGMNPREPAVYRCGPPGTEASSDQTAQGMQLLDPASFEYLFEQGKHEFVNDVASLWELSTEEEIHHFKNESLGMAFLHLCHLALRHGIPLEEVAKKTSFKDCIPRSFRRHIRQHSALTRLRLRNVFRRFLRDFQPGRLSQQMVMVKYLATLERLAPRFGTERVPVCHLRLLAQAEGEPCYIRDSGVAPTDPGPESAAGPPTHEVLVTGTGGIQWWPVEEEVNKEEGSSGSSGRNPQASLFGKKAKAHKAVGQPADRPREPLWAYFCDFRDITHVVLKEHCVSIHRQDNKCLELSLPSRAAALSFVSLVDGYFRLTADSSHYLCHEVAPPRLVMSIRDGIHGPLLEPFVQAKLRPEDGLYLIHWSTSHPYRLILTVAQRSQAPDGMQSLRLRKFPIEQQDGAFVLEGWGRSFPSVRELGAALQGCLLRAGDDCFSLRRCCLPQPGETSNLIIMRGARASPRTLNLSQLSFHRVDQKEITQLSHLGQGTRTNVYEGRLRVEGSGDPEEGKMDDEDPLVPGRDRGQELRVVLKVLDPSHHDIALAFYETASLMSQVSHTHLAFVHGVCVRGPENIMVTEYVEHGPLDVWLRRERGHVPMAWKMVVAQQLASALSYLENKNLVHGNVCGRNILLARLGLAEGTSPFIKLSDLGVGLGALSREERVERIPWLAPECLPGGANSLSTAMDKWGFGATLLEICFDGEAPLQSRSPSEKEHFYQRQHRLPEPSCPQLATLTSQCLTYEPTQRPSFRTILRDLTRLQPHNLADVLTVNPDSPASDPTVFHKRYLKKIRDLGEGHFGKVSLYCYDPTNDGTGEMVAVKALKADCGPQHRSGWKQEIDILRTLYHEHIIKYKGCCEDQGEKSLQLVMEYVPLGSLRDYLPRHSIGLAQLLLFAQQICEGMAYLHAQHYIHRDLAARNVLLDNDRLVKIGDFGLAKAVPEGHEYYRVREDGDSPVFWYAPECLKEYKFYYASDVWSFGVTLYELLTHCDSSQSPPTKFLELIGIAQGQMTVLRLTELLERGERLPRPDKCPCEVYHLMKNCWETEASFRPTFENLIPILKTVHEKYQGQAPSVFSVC

On to `[2H]C([2H])([2H])NC(=O)c1cnc(NC(=O)C2CC2)cc1Nc1nn(CCCOC)c2ccn(CC(F)(F)F)c(=O)c12` [Example 96, 6-(Cyclopropanecarboxamido)-4-((1-(3-methoxypropyl)-4-oxo-5-(2,2,2-trifluoroethyl)-4,5-dihydro-1H-pyrazolo[4,3-c]pyridin-3-yl)amino)-N-(methyl-d3)nicotinamide], for which the fraction unbound at 5 h in series [1] is 0.171. For the same compound, the GI50 in series [2] came to 351 nM. For the same compound, in series [3] (setting [5]), the microsomal CLint at 1 μM amounted to 16.7 µL/min/mg. In series [3] (setting [6]), the half-life at 1 μM was 83 min.

For the compound `[2H]C([2H])([2H])NC(=O)c1cnc(Nc2cc(C)nc(C)n2)cc1Nc1cc(F)c2cnn(CC)c2c1OC` [Example 152, 6-((2,6-Dimethylpyrimidin-4-yl)amino)-4-((1-ethyl-4-fluoro-7-methoxy-1H-indazol-6-yl)amino)-N-(methyl-d3)nicotinamide], the half-life at 1 μM is more than 240 min in series [4], 2.9 min in series [3] (setting [8]), 32.7 min in series [3] (setting [6]) and 25.6 min in series [3] (setting [10]). In addition, the GI50 in series [2] was found to be 27.9 nM. Besides, the microsomal CLint at 1 μM stood at 478 µL/min/mg in series [3] (setting [7]), 42.4 µL/min/mg in series [3] (setting [5]) and 54.1 µL/min/mg in series [3] (setting [9]). Besides, the IC50 was found to be 78.5 nM in the series on pSTAT1, 0.171 nM on TYK2-JH2 domain and 10.7 nM at JAK1-JH2 domain. Also, at TYK2-JH2 domain, the JAK1/TYK2 selectivity is 62.6.

On to `CNC(=O)c1cnc(NC(=O)C2CC2)cc1Nc1nn(C)c2ccn(CC(F)(F)F)c(=O)c12` [Example 52, 6-(Cyclopropanecarboxamido)-N-methyl-4-((1-methyl-4-oxo-5-(2,2,2-trifluoroethyl)-4,5-dihydro-1H-pyrazolo[4,3-c]pyridin-3-yl)amino)nicotinamide], for which the fraction unbound at 5 h in series [1] was 0.041. Further, in series [2], the GI50 was 127 nM. Further, the microsomal CLint at 1 μM in series [3] (setting [7]) is 11.1 µL/min/mg; in series [3] (setting [5]), 8.05 µL/min/mg; in series [3] (setting [9]), 30.8 µL/min/mg. For the same compound, the half-life at 1 μM in series [3] (setting [8]) amounted to 125 min; in series [3] (setting [6]), 172 min; in series [3] (setting [10]) it was 45 min.

`[2H]C([2H])([2H])NC(=O)c1cnc(Nc2ccn(C)n2)cc1Nc1cc(F)c2cnn(CC)c2c1OC` [Example 151, 4-((1-Ethyl-4-fluoro-7-methoxy-1H-indazol-6-yl)amino)-N-(methyl-d3)-6-((1-methyl-1H-pyrazol-3-yl)amino)nicotinamide]: the CLint scaled at 1 μM in series [4] (read-out: Human hepatocyte Clint(liver)) amounted to 9.1 mL/min/kg. The half-life at 1 μM in series [4] was 194 min; in series [3] (setting [8]) it was 29.6 min; in series [3] (setting [6]) it was 21.8 min; in series [3] (setting [10]), 20.9 min. For the same compound, the GI50 in series [2] was found to be 77.7 nM. In addition, the microsomal CLint at 1 μM in series [3] (setting [7]) was 46.8 µL/min/mg; in series [3] (setting [5]) it was 63.5 µL/min/mg; in series [3] (setting [9]) it was 66.3 µL/min/mg. Also, the values for the IC50 in the series with pSTAT1, on TYK2-JH2 domain and on JAK1-JH2 domain were 1860 nM, 0.46 nM and 13.1 nM, respectively. Besides, the JAK1/TYK2 selectivity at TYK2-JH2 domain is listed as 28.5.

On to `C=CCn1cc(Nc2cc(NC(=O)C3CC3)ncc2C(=O)NC)c2c(=O)n(CC)ccc21` [Example 246, 4-((1-Allyl-5-ethyl-4-oxo-4,5-dihydro-1H-pyrrolo[3,2-c]pyridin-3-yl)amino)-6-(cyclopropanecarboxamido)-N-methylnicotinamide], for which the GI50 in series [2] is 75.7 nM. Also, the IC50 in the series on pSTAT1 was found to be 287 nM; on TYK2-JH2 domain, 0.156 nM; at JAK1-JH2 domain it was 11.8 nM. At TYK2-JH2 domain, the JAK1/TYK2 selectivity was determined as 75.9.

`CNC(=O)c1cnc(NC(=O)C2CC2)nc1Nc1cccc(-c2ncn(C)n2)c1OC` [Example 65, 2-(Cyclopropanecarboxamido)-4-((2-methoxy-3-(1-methyl-1H-1,2,4-triazol-3-yl)phenyl)amino)-N-methylpyrimidine-5-carboxamide]: the fraction unbound at 5 h in series [1] is 0.061. The GI50 in series [2] is 172 nM.
